Values after ≈ are worked out from the molar mass of the structure shown. Like-named read-outs stand apart in the source and are kept apart here. Marks after values point to notes of the source that are not given here.
Columns and labels:
[1] = tested on: P. aeruginosa ATCC 27853; test: MIC by serial dilutions in broth (visible growth)
[2] = tested on: S. aureus ATCC 25923; test: MIC by serial dilutions in broth (visible growth); assay type: cell-based;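 further: broth tubes inoculated at about 5×10^5 CFU/ml, incubated 16-24 h at 35 °C in air, growth judged by transmitted light against an unexposed refrigerated inoculum tube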
[3] = tested on: E. coli ATCC 25922; test: MIC by serial dilutions in broth (visible growth); assay type: cell-based;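 further: broth tubes inoculated to about 5×10^5 CFU/ml, incubated at 35 °C for 16-24 h, growth judged by transmitted light versus an untreated inoculum reference tube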
Procedure: The minimum inhibitory concentration (MIC) and minimum bactericidal concentration (MBC) of the antibacterial composition enriched for the light isotope zinc ^64Zne was evaluated in the experiment. […] S. aureus ATCC 25923, E. coli ATCC 25922 and P. aeruginosa ATCC 27853 were used as test cultures.
The studies were carried out using the method of serial dilutions in broth. To determine sensitivity of microorganisms to the antibacterial composition, 0.5 ml of broth was placed into each tube. The number of tubes was determined based on the desired number of dilutions and was increased by one for the “negative” control (no test composition). Series of two-fold serial dilutions of the test variants of the antibacterial composition were used and concentrations ranging from 450 mcg ^64Zne/ml to 0.000107 mcg ^64Zne/ml were obtained.
Reference test strains of S. aureus ATCC 25923, E. coli ATCC 25922 and P. aeruginosa ATCC 27853 were incubated in Mueller-Hinton liquid broth at 37° C. for 24 hours. Standard bacterial suspension equivalent to 0.5 McFarland standard diluted 100-fold with the broth was used for the inoculation of the tubes after which the concentration of microorganism in it was approximately 10^6 CFU/ml.
0.5 ml of inoculum was added to each tube containing 0.5 ml of the appropriate dilution of a solution of the ^64Zn-enriched salt of interest. […] The final concentration of the microorganism in each tube was approximately 5×10^5 CFU/ml.
The tubes were incubated at 35° C. in air for 16-20 or 20-24 hours (depending on the bacterial strain).
To determine the presence of microorganism growth the test tubes with inoculum were viewed under transmitted light. Transmitted light was measured by spectrophotometry. The growth of culture in the presence of antibacterial compositions based on ^64Zne was compared with the reference test tube (“negative” control), containing the original inoculum and stored in the refrigerator. The MIC was determined as the lowest concentration of ^64Zne that inhibits visible growth of the microorganism. Both gram-positive (S. aureus) and gram-negative bacteria (P. aeruginosa, E. coli) were used in the experiments described below.
That is, ^64Zne in the form of a salt was compared with a composition that contains zinc with a natural distribution of isotopes. […] Relevant samples containing salt of natural zinc with EDDA and natural zinc sulfate were used for the comparison.
The following commercial antibacterial medications were used for the study: azithromycin and ceftriaxone and norfloxacin. The initial concentration of 3000 mcg/ml was used for the samples of all the above compounds. […] Serial dilutions of the above antibacterial compounds were also prepared in the same way as for the antibacterial composition of the invention. The same pathogenic strains of S. aureus ATCC 25923, E. coli ATCC 25922, P. aeruginosa ATCC 27853 were used for the study.

[4] = tested on: S. aureus ATCC 25923; test: MBC by plating tube contents on Mueller-Hinton medium; assay type: cell-based
Procedure: (§1) To evaluate the bactericidal action of the antibacterial composition based on light isotope ^64Zne the minimum bactericidal concentration (MBC) was determined by plating out 0.1 ml of the contents of each tube containing the antibacterial composition on Mueller-Hinton medium. The incubation was at 37° C. for 24 h.
(§2) The MBC of the test samples was determined as the lowest concentration at which there was no growth on Mueller-Hinton agar medium.

[5] = tested on: E. coli ATCC 25922; test: as above; assay type: cell-based
Procedure: as §1, §2

[6] = tested on: P. aeruginosa ATCC 27853; test: as above; assay type: cell-based
Procedure: as §1, §2

[7] = tested on: E. coli ATCC 25922; test: MIC of deuterium-depleted water by serial dilutions in normal saline solution; assay type: cell-based; conditions: basic solution, 10^4, 10^6, 10^8 cells/ml
Procedure: (§3) The minimum inhibitory concentration (MIC) of deuterium-depleted water was determined by serial dilutions in normal saline solution. Reference strains of E. coli ATCC 25922 and P. aeruginosa ATCC 27859 were used as test cultures. For inoculation, microbial suspension equivalent to a 0.5 standard McFarland (1.5×10^8 cells/ml) was used. Then the dilutions with normal saline solution were prepared so that the concentration of microorganisms reached approximately 10^4 cells/ml. The test cultures were previously grown for 24 hours at 37° C. One-tenth of a milliliter (0.1 ml) of the suspension was placed into each test tube containing 4 ml of the medium with the investigative active substance at a certain concentration (without deuterium-depleted water in the control). The tubes were incubated in an incubator at 37° C. for 24 hours. After incubation the inoculum from each tube was plated on Mueller-Hinton agar medium for P. aeruginosa and on Endo for E. coli and incubated at 37° C. for another 24 hours. The results were evaluated based on the presence of bacterial growth (turbidity) in the nutrient broth and, if necessary, by using other additional known bacteriological tests. The first few tubes remained transparent due to the antimicrobial effect of the study substance. […] The results are shown in the table below and illustrated in FIGS. 5b and 5c.

[8] = tested on: P. aeruginosa ATCC 27859; test: as above; assay type: cell-based; conditions: basic solution, 10^4, 10^6, 10^8 cells/ml; text names ATCC 27853
Procedure: as §3

[9] = Table 7, ^64Zne vs natural zinc
[10] = concentration of ^64Zne, Tables 1-5
[11] = Table 8, ^64Zne vs natural zinc
[12] = Pseudomonas aeruginosa, ATCC27853
[13] = Staphylococcus aureus, ATCC25923, Table 9, commercial antibacterial agents, read-out: MIC
[14] = Escherichia coli, ATCC25922, Table 9, commercial antibacterial agents, read-out: MIC
[15] = Staphylococcus aureus, ATCC25923, Table 10, commercial antibacterial agents, read-out: MBC
[16] = Escherichia coli, ATCC25922, Table 10, commercial antibacterial agents, read-out: MBC
[17] = Pseudomonas aeruginosa, ATCC27853, Table 10, commercial antibacterial agents, read-out: MBC

`O=S(=O)([O-])[O-].[64Zn+2]` [^64Zne sulfate] was tested, and the MIC [1, 9] was 46.875 zinc/ml, the MIC [1, 10] was 46.875 µg/mL and the visible growth [2] was “− and +”. For the same compound, the MIC [2, 9] was 0.366 zinc/ml, the visible growth ([2]; ^64Zne 0.00036 mcg/ml) was “+” and the visible growth ([2]; ^64Zne 0.00072 mcg/ml) was “+”. The visible growth ([2]; ^64Zne 0.0014 mcg/ml) was “+”, the visible growth ([2]; ^64Zne 0.0029 mcg/ml) was “+” and the visible growth ([2]; ^64Zne 0.011 mcg/ml) was “+”. The visible growth ([2]; ^64Zne 0.023 mcg/ml) was “+”, the visible growth ([2]; ^64Zne 0.046 mcg/ml) was “+” and the visible growth ([2]; ^64Zne 0.37 mcg/ml) was “−”. The visible growth ([2]; ^64Zne 1.46 mcg/ml) was “−”, the visible growth ([2]; ^64Zne 2.93 mcg/ml) was “−” and the visible growth ([2]; ^64Zne 5.86 mcg/ml) was “−”. The visible growth ([2]; ^64Zne 11.72 mcg/ml) was “−”, the visible growth ([2]; ^64Zne 23.44 mcg/ml) was “−” and the visible growth ([2]; ^64Zne 46.88 mcg/ml) was “−”. The visible growth ([2]; ^64Zne 93.75 mcg/ml) was “−”, the visible growth ([2]; ^64Zne 187.5 mcg/ml) was “−” and the visible growth ([2]; ^64Zne 375 mcg/ml) was “−”. For the same compound, the visible growth ([2]; ^64Zne 750 mcg/ml) was “−”, the MIC [2, 10] was 0.366 µg/mL and the visible growth [3] was “− and +”. For the same compound, the MIC [3, 9] was 0.0916 zinc/ml, the visible growth ([3]; ^64Zne 0.00036 mcg/ml) was “+” and the visible growth ([3]; ^64Zne 0.00072 mcg/ml) was “+”. For the same compound, the visible growth ([3]; ^64Zne 0.0014 mcg/ml) was “+”, the visible growth ([3]; ^64Zne 0.0029 mcg/ml) was “+” and the visible growth ([3]; ^64Zne 0.011 mcg/ml) was “+”. For the same compound, the visible growth ([3]; ^64Zne 0.023 mcg/ml) was “+”, the visible growth ([3]; ^64Zne 0.046 mcg/ml) was “+” and the visible growth ([3]; ^64Zne 0.092 mcg/ml) was “−”. The visible growth ([3]; ^64Zne 0.37 mcg/ml) was “−”, the visible growth ([3]; ^64Zne 0.73 mcg/ml) was “−” and the visible growth ([3]; ^64Zne 1.46 mcg/ml) was “−”. The visible growth ([3]; ^64Zne 2.93 mcg/ml) was “−”, the visible growth ([3]; ^64Zne 5.86 mcg/ml) was “−” and the visible growth ([3]; ^64Zne 11.72 mcg/ml) was “−”. The visible growth ([3]; ^64Zne 23.44 mcg/ml) was “−”, the visible growth ([3]; ^64Zne 46.88 mcg/ml) was “−” and the visible growth ([3]; ^64Zne 93.75 mcg/ml) was “−”. The visible growth ([3]; ^64Zne 187.5 mcg/ml) was “−”, the visible growth ([3]; ^64Zne 375 mcg/ml) was “−” and the visible growth ([3]; ^64Zne 750 mcg/ml) was “−”. The visible growth ([3]; ^64Zne 1500 mcg/ml) was “−”, the MIC [3, 10] was 0.0916 µg/mL and the MBC ([4]; Table 6) was 0.37* mcg ^64Zne/ml. The MBC [4, 11] was 0.3662 mcg zinc/ml, the MBC ([5]; Table 6) was 1.46* mcg ^64Zne/ml and the MBC [5, 11] was 1.4648 mcg zinc/ml. The “bactericidal activity (in words)” value [6] was “satisfactory bactericidal activity”, the MBC ([6]; Table 6) was 375 mcg ^64Zne/ml and the MBC [6, 11] was 375 mcg zinc/ml.

`CC[C@H]1OC(=O)[C@H](C)[C@@H](O[C@H]2C[C@@](C)(OC)[C@@H](O)[C@H](C)O2)[C@H](C)[C@@H](O[C@@H]2O[C@H](C)C[C@H](N(C)C)[C@H]2O)[C@](C)(O)C[C@@H](C)CN(C)[C@H](C)[C@@H](O)[C@]1(C)O` [azithromycin, reference compound] showed an MIC [1, 12] of 1500 µg/mL (≈ 2000 µM), an MIC [2, 13] of 188 µg/mL (≈ 250 µM) and an MIC [3, 14] of 1500 µg/mL (≈ 2000 µM). For the same compound, the MBC [4, 15] was less than 1500 µg/mL, the MBC [5, 16] was less than 1500 µg/mL and the MBC [6, 17] was less than 1500 µg/mL.

With `CO/N=C(\C(=O)N[C@@H]1C(=O)N2C(C(=O)O)=C(CSc3nc(=O)c(=O)[nH]n3C)CS[C@H]12)c1csc(N)n1` [ceftriaxone, reference compound] the MIC [1, 12] was 750 µg/mL (≈ 1350 µM), the MIC [2, 13] was 11.7 µg/mL (≈ 21.1 µM) and the MIC [3, 14] was 2.93 µg/mL (≈ 5.28 µM). It also gave an MBC [4, 15] of 375 µg/mL (≈ 676 µM), an MBC [5, 16] of 11.7 µg/mL (≈ 21.1 µM) and an MBC [6, 17] of less than 1500 µg/mL.

`O` [deuterium-depleted water] was tested, and the “bactericidal effect (in words)” value [7] was “bactericidal effect” and the “bactericidal effect (in words)” value [8] was “bactericidal effect”.

For `CCn1cc(C(=O)O)c(=O)c2cc(F)c(N3CCNCC3)cc21` [norfloxacin, reference compound], the MIC [1, 12] was 188 µg/mL (≈ 587 µM), the MIC [2, 13] was 11.7 µg/mL (≈ 36.7 µM) and the MIC [3, 14] was 23.4 µg/mL (≈ 73.4 µM). It also gave an MBC [4, 15] of less than 1500 µg/mL, an MBC [5, 16] of less than 1500 µg/mL and an MBC [6, 17] of less than 1500 µg/mL.
